Key:
[1] = tested on: LXFE409 xenograft model; test: Combination of docetaxel or carboplatin and MLN4924 in LXFE409 xenograft model; format: in vivo, mice; conditions: LXFE409 xenograft; 50 mg/kg carboplatin QW IP
Procedure: LXFE409 squamous non small cell lung cancer tumor fragments are implanted into the subcutaneous space in the flank of female NMRI nu/nu mice (5-7 weeks, Janvier Labs, Saint Berthevin, France).
(§1) Docetaxel (Henry Schein, Inc., Pittsburgh Pa., Qilu Pharmaceutical Co., Ltd., Jinan, Shandong, China, and Sanofi-Aventis) is formulated in 0.9% saline and administered by intravenous injection (IV) once weekly (QW) at 5 mg/kg or 10 mg/kg.
(§2) Carboplatin (CARBOplatin Injection, Hospira, Inc., Qilu Pharmaceutical Co., Ltd. Jinan, Shandong, China, and Teva Gry-Pharma GmbH, Ulm, Germany) is formulated in 0.9% saline and administered by IP injection once weekly (QW) at 50 mg/kg. The once weekly schedule is also described as every 7 days (Q7D).
(§3) Tumors are measured twice weekly using a vernier caliper. Tumor volumes are calculated using standard procedures (0.5×(length×width^2)). […] Tumor size and body weight are measured approximately twice a week for the duration of the study. Mice are euthanized when their tumor volume reached 10% of their body weight, or when the average tumor volume of a treatment or control group reached approximately 2000 mm^3. Tumor growth continued to be monitored after the dosing period in some studies. Average tumor volume is reported as a function of time for selected groups of selected studies in Figures A, B, and C.
(§4) Measurements from day 0 to 18, 21 or 22 are analyzed as specified in Tables 4-9. All tumor volumes have a value of 1 added to them before log10 transformation. For each animal, the log tumor volume at day 0 is subtracted from the log tumor volume on the subsequent days. This difference vs. time is used to calculate an area under the curve (AUC) for each animal using the trapezoid rule. […] The synergy score for the combination of agents A and B is defined as 100*(mean(AUCAB)−mean(AUCA)−mean(AUCB)+mean(AUCctl))/mean(AUCctl): where AUCAB, AUCA, AUCB, and AUCctl are the AUC values for animals in the combination group, the A group, the B group, and the control group, respectively. The standard error of the synergy score is computed based on the variation in the AUC values among the animals. […] If the P-value is above 0.05, then the combination is considered to be additive. If the P-value is below 0.05, and the synergy score is less than zero, then the combination is considered to be synergistic. […] Otherwise, the combination is classified as antagonistic.

[2] = tested on: LU1143 xenograft model; test: Combination of docetaxel or carboplatin and MLN4924 in LU1143 xenograft model; format: in vivo, mice; conditions: 50 mg/kg carboplatin QW IP
Procedure: as §1, §2, §3
Measurements from day 0 to 18, 21 or 22 are analyzed as specified in Tables 4-9. All tumor volumes have a value of 1 added to them before log10 transformation. For each animal, the log tumor volume at day 0 is subtracted from the log tumor volume on the subsequent days. This difference vs. time is used to calculate an area under the curve (AUC) for each animal using the trapezoid rule. […] The synergy score for the combination of agents A and B is defined as 100*(mean(AUCAB)−mean(AUCA)−mean(AUCB)+mean(AUCctl))/mean(AUCctl): where AUCAB, AUCA, AUCB, and AUCctl are the AUC values for animals in the combination group, the A group, the B group, and the control group, respectively. The standard error of the synergy score is computed based on the variation in the AUC values among the animals. […] If the P-value is above 0.05, then the combination is considered to be additive. […]

[3] = tested on: HCT116; test: In vitro cell viability combination assay (CellTiter-Glo); conditions: agent combined with MLN4924, vehicle PBS, 48 hr
[4] = tested on: SW1573; test: as above; format: cell-based; conditions: agent combined with MLN4924, vehicle PBS, 72 hr
Source text: (§5) After normalization, the controls are discarded.
(§6) Otherwise, the classification is “Additivity”.

[5] = tested on: NCI-H1299; test: as above; format: cell-based; conditions: agent combined with MLN4924, vehicle PBS, 72 hr
Source text: as §5, §6

[6] = tested on: KNS-62; test: as above; format: cell-based; conditions: agent combined with MLN4924, vehicle PBS, 72 hr
Source text: as §5, §6

[7] = tested on: EBC-1; test: as above; format: cell-based; conditions: agent combined with MLN4924, vehicle PBS, 72 hr
Source text: as §5, §6

[8] = tested on: SW900; test: as above; format: cell-based; conditions: agent combined with MLN4924, vehicle PBS, 72 hr
Source text: as §5, §6

[9] = tested on: LC-1-SQ; test: as above; format: cell-based; conditions: agent combined with MLN4924, vehicle PBS, 72 hr
Source text: as §5, §6

[10] = tested on: CHAGO-K-1; test: as above; format: cell-based; conditions: agent combined with MLN4924, vehicle PBS, 72 hr
Source text: as §5, §6

[11] = tested on: HARA; test: as above; format: cell-based; conditions: agent combined with MLN4924, vehicle PBS, 72 hr
Source text: as §5, §6

[12] = tested on: NCI-H520; test: as above; format: cell-based; conditions: agent combined with MLN4924, vehicle PBS, 72 hr
Source text: as §5, §6

[13] = tested on: SK-MES-1; test: as above; format: cell-based; conditions: agent combined with MLN4924, vehicle PBS, 72 hr
Source text: as §5, §6

[14] = tested on: LK-2; test: as above; format: cell-based; conditions: agent combined with MLN4924, vehicle PBS, 72 hr
Source text: as §5, §6

[15] = tested on: NCI-H1703; test: as above; format: cell-based; conditions: agent combined with MLN4924, vehicle PBS, 72 hr
Source text: as §5, §6

[16] = tested on: CALU-1; test: as above; format: cell-based; conditions: agent combined with MLN4924, vehicle PBS, 72 hr
Source text: as §5, §6

[17] = tested on: NCI-H596; test: as above; format: cell-based; conditions: agent combined with MLN4924, vehicle PBS, 72 hr
Source text: as §5, §6

[18] = tested on: LUDLU-1; test: as above; format: cell-based; conditions: agent combined with MLN4924, vehicle PBS, 72 hr
Source text: as §5, §6

[19] = tested on: NCI-H69; test: as above; format: cell-based; conditions: agent combined with MLN4924, vehicle DMSO, 96 hr
Source text: as §5, §6

[20] = tested on: RERF-LC-SQ1; test: as above; format: cell-based; conditions: agent combined with MLN4924, vehicle PBS, 72 hr
Source text: as §5, §6

[21] = tested on: NCI-H2170; test: as above; format: cell-based; conditions: agent combined with MLN4924, vehicle PBS, 72 hr
Source text: as §5, §6

[22] = tested on: VMRC-LCP; test: as above; format: cell-based; conditions: agent combined with MLN4924, vehicle PBS, 72 hr
Source text: as §5, §6

[23] = tested on: A549; test: as above; conditions: agent combined with MLN4924, vehicle PBS, 72 hr
Procedure: (§7) General Method: Cells are grown in their respective growth media, supplemented with 10% fetal bovine serum unless otherwise noted. […] A portion of each plate is used for positive controls (no agent is added), while another portion of each plate is used for negative controls (no cells are added). Viability is assessed with CellTiter-Glo® Cell Viability reagent used according to manufacturer's instructions (Promega). Luminescence is measured using a LEADseeker imaging system (GE Healthcare).
(§8) The viability data is normalized separately for each plate by scaling the data so that the median of the negative controls is 0 and the median of the positive controls is 100. More formally,
(§9) [formula] where Vi is the normalized viability of the i^th well, Ui is the raw viability measurement, median (U) is the median of the negative controls, and median (U+) is the median of the positive controls. After normalization, the controls are discarded.
(§10) where E1, E2, E3, E4, I1, I2, I3, S1, S2, S3, and S4 are parameters, CA and CB are the respective concentrations of agents A and B, and V is the normalized viability measurement. It is assumed that the error values are independent and identically distributed normal random variables.
(§11) The Combination Index is computed based on an isobologram, which is a slice of the dose response surface with constant viability. For the present analysis, the 50% isobologram, which is the dose contour that has 50% viability, is used. […] Since the choice of (DA, DB) can be arbitrary, the constraint DA/DB=EC50A/EC50B is used.
(§12) In such cases, Nonlinear Blending can be used as an alternative measure of synergy or additivity. Nonlinear Blending is found by considering a slice of the dose response surface that intersects both concentration axes and runs parallel to the viability axis. Let VA and VB be the viability where the slice intersects the drug A and B axes, respectively. Let Vmax and Vmin be the maximum and minimum viabilities along the slice. Let NLBS=min(VA,VB)−Vmin NLBA=Vmax−max(VA,VB) Define the Nonlinear Blending value to be NLBS if NLBS>NLBA and −NLBA otherwise.
(§13) After completing the analysis of individual plates, the results are combined across the replicates. For a given measure and a set of replicates, the overall mean and standard error are computed using weighted averaging. A null mean, which corresponded to an additive effect, is then compared with the overall mean. The null mean is 1 for the Combination Index and 0 for Nonlinear Blending. Next, a two sized Z-test is performed based on the estimated mean and standard error. This produces a p-value for each measure and each cell line.
(§14) After computing the mean, standard error, and p-value for each set of replicates, these values require interpretation. Thus, a standard procedure is used to produce a classification (synergy, additivity, subadditivity, antagonism, or inconclusive) in each case. If the Combination Index exists for more than half of the replicates, then these measures are used to make the classification.
(§15) Consider the case where the Combination Index is used to make the classification. If the p-value is greater than 0.05, the estimate for the Combination Index is not statistically different from 1. However, if the standard error is also very large, then the estimate is too uncertain to be informative. […] Otherwise, the classification is “Additivity”. When the p-value is less than 0.05, the estimate for the Combination Index is statistically different from 1. However, if the mean is still close to 1, then the difference is not of practical significance. Thus, the result is classified based on the mean. A mean in the range (0.8, 1.2) is considered close enough to 1 to be classified as Additivity. A mean in the range (0, 0.8) is considered low enough to be classified as Synergy. […] The threshold value of 2 can be derived from the definition of the Combination Index.

[24] = tested on: NCI-H526; test: as above; conditions: agent combined with MLN4924, vehicle DMSO, 96 hr
Procedure: as §7, §8, §9, §10, §11, §12, §13, §14, §15

[25] = tested on: NCI-H510; test: as above; conditions: agent combined with MLN4924, vehicle DMSO, 96 hr
Procedure: as §7, §8, §9, §10, §11, §12, §13, §14, §15

[26] = tested on: NCI-H82; test: as above; conditions: agent combined with MLN4924, vehicle DMSO, 96 hr
Procedure: as §7, §8, §9, §10, §11, §12, §13, §14, §15

[27] = tested on: NCI-H69 xenograft model; test: Combination of carboplatin and MLN4924 in NCI-H69 xenograft model; format: in vivo, mice
Procedure: NCI-H69 or NCI-H82 small cell lung tumor fragments (30- to 40-mg) are implanted into the subcutaneous space in the area of the right flank of NCr nu/nu mice (7-10 weeks, Charles River Laboratories, Inc, Frederick Md. or Wilmington, Mass.) using a 12-gauge trocar.
as §2, §3, §4

[28] = tested on: NCI-H209; test: In vitro cell viability combination assay (CellTiter-Glo); conditions: agent combined with MLN4924, vehicle DMSO, 96 hr
Procedure: as §7, §8, §9, §10, §11, §12, §13, §14, §15

`N.N.O=C([O-])C1(C(=O)[O-])CCC1.[Pt+2]` [carboplatin] was tested, and the “average tumor volume day 21” value [1] was 204.4 mm^3, the “average tumor volume day 21” value [2] was 658.7 mm^3 and the “Combination Index” value [3] was 0.71 ± 0.03. The “Nonlinear Blending” value [3] was 19 ± 2, the “Nonlinear Blending” value [4] was 6 ± 5 and the “Combination Index” value [5] was 1.10 ± 0.05. For the same molecule, the “Nonlinear Blending” value [5] was −8 ± 2, the “Combination Index” value [6] was 0.82 ± 0.1 and the “Nonlinear Blending” value [6] was 10 ± 5. The “Combination Index” value [7] was 1.24 ± 0.06, the “Nonlinear Blending” value [7] was −7 ± 1 and the “Combination Index” value [8] was 0.85 ± 0.06. The “Nonlinear Blending” value [8] was 10 ± 1, the “Combination Index” value [9] was 0.51 ± 0.04 and the “Nonlinear Blending” value [9] was 28 ± 2. The “Combination Index” value [10] was 0.88 ± 0.03, the “Nonlinear Blending” value [10] was 11 ± 1 and the “Combination Index” value [11] was 1.06 ± 0.1. The “Nonlinear Blending” value [11] was −3 ± 10, the “Nonlinear Blending” value [12] was 9 ± 20 and the “Combination Index” value [13] was 1.32 ± 0.06. The “Nonlinear Blending” value [13] was −22 ± 4, the “Combination Index” value [14] was 0.66 ± 0.05 and the “Nonlinear Blending” value [14] was 15 ± 2. The “Combination Index” value [15] was 1.31 ± 0.02, the “Nonlinear Blending” value [15] was −23 ± 2 and the “Combination Index” value [16] was 0.78 ± 0.05. For the same molecule, the “Nonlinear Blending” value [16] was 11 ± 6, the “Combination Index” value [17] was 0.59 ± 0.1 and the “Nonlinear Blending” value [17] was 10 ± 7. The “Combination Index” value [18] was 0.84 ± 0.2, the “Nonlinear Blending” value [18] was 5 ± 5 and the “Combination Index” value [19] was 1.18 ± 0.09. For the same molecule, the “Nonlinear Blending” value [19] was −5 ± 1, the “Combination Index” value [20] was 0.77 ± 0.06 and the “Nonlinear Blending” value [20] was 11 ± 1. For the same molecule, the “Combination Index” value [21] was 1.38 ± 0.1, the “Nonlinear Blending” value [21] was −19 ± 7 and the “Combination Index” value [22] was 1.00 ± 0.04. The “Nonlinear Blending” value [22] was −3 ± 1, the “Combination Index” value [23] was 0.72 ± 0.05 and the “Nonlinear Blending” value [23] was 8 ± 4. For the same molecule, the “Combination Index” value [24] was 1.02 ± 0.1, the “Nonlinear Blending” value [24] was 0 ± 2 and the “Combination Index” value [25] was 0.81 ± 0.08. For the same molecule, the “Nonlinear Blending” value [25] was 5 ± 2, the “Combination Index” value [26] was 0.65 ± 0.1 and the “Nonlinear Blending” value [26] was 12 ± 2. The “average tumor volume day 21” value ([27]; 50 mg/kg carboplatin QW IP) was 501.3 mm^3, the “tumor growth during the treatment period (in words)” value ([27]; FIG. 3, MLN4924 SC 120 mg/kg BID Q3Dx2/week, carboplatin 50 mg/kg IP QW, single agents or their combination) was “inhibited tumor growth compared to the control vehicle group” and the “Combination Index” value [28] was 1.00 ± 0.06. The “Nonlinear Blending” value [28] was −1 ± 1.

Source: patent US10786505B2, “Administration of NEDD8-activating enzyme inhibitor and chemotherapeutic agents” (Millennium Pharmaceuticals, Inc., priority 2013, dated 2020)
